Key:
[1] = Vorinostat, VG and VA serum pharmacokinetics; format: in vivo, human; details: for Change in Tmax, Cmax, and AUC0-8h: DSI schedule, day 1 or day 4, alvocidib escalated over 10–40 mg/m^2
[2] = system: patients with relapsed, refractory, or poor prognosis acute leukemia, or RAEB-2; test: Phase I 3+3 dose escalation: DLT and MTD of alvocidib combined with vorinostat; format: in vivo, human
[3] = system: solid tumor patients; details: cited from earlier work
[4] = Alvocidib plasma pharmacokinetics; format: in vivo, human; details: for Overall mean CL of alvocidib: initial dose, geometric mean ± SD
[5] = cited from earlier work
[6] = days 2 and 16, 28-day cycles, with vorinostat 800 mg
[7] = vorinostat 200 mg orally with alvocidib

In the case of `O=C(O)CCC(=O)Nc1ccccc1` [VA, 4-anilino-4-oxobutanoic acid], the “Change in Tmax, Cmax, and AUC0-8h” value [1] is reported as “no change”.

In the case of `O=C(CCCCCCC(=O)Nc1ccccc1)NO[C@@H]1O[C@H](C(=O)O)[C@@H](O)[C@H](O)[C@H]1O` [VG, vorinostat glucuronide], the “Change in Tmax, Cmax, and AUC0-8h” value [1] is reported as “no change”, the “AUC lower with 60 mg/m^2 compared to 40 mg/m^2 alvocidib dose” value ([1]; WLMI schedule) is reported as 50% and the “Cmax lower with 60 mg/m^2 compared to 40 mg/m^2 alvocidib dose” value ([1]; WLMI schedule) is reported as 50%.

In the case of `CN1CC[C@H](c2c(O)cc(O)c3c(=O)cc(-c4ccccc4Cl)oc23)[C@H](O)C1` [alvocidib, flavopiridol], the “MTD, alvocidib maintenance infusion” value ([2]; 4-h maintenance infusion, days 1 and 8 of 21-day cycle (WLMI), with vorinostat 200 mg orally TID days 1–14) is given as 20 mg/m^2, the “MTD, alvocidib loading infusion” value ([2]; 30-min loading infusion, days 1 and 8 of 21-day cycle (WLMI), with vorinostat 200 mg orally TID days 1–14) is given as 20 mg/m^2 and the “MTD, alvocidib given over 4 h” value [3, 6] is given as 30 mg/m^2. For the same compound, the “MTD, alvocidib initial 30 min infusion” value [3, 6] was 30 mg/m^2, the “Plasma concentration immediately before dosing on days 4 or 8 (accumulation)” value ([4]; daily and weekly infusion schedules, on average) was < 1 % of the subsequent Cmax and the “Mean CL of alvocidib” value ([4]; day 4 dose, DSI schedule, after vorinostat 200 mg TID for 3 days) was 9.9 ± 5.4 L/h/m^2. For the same compound, the “Mean CL of alvocidib” value ([4]; day 8 dose, WLMI schedule, after vorinostat 200 mg TID for 7 days) was 11.0 ± 3.9 L/h/m^2, the “Overall mean CL of alvocidib” value ([4]; DSI schedule) was 13.0 ± 4.8 L/h/m^2 and the “Overall mean CL of alvocidib” value ([4]; WLMI schedule) was 12.2 ± 5.3 L/h/m^2. For the same compound, the “Binding to plasma proteins” value [5] was “highly bound”.

In the case of `O=C(CCCCCCC(=O)Nc1ccccc1)NO` [vorinostat, Vorinostat], the “MTD for this regimen, vorinostat” value ([2]; TID, with alvocidib WLMI 20/20 mg/m^2) is listed as 200 mg, the “MTD, vorinostat” value ([3]; days 1–3 and 15–17, 28-day cycles, with alvocidib WLMI) is listed as 800 mg and the “Change in Tmax, Cmax, and AUC0-8h” value [1] is listed as “no change”. The “Vorinostat AUC higher, WLMI compared to DSI schedule” value [1, 7] was 25–50% and the “Vorinostat Cmax higher, WLMI compared to DSI schedule” value [1, 7] was 25–50%.

From PMC3618599 (Clinical cancer research : an official journal of the …, 2013)
